From patent US20170007625A1, “NOVEL FORMULATIONS TO INHIBIT CYCLOOXYGENASE AND PRO-INFLAMMATORY CYTOKINE MEDIATED DISEASES” (Bioved Pharmaceuticals, Inc., priority 2008, published 2017)

Legend:
[1] = tested on: Adjuvant Arthritis (CFA induced); assay: Adjuvant induced arthritis in rats; type: in vivo
Description: Arthritis or inflammation in the joint was induced by injection of Complete Freund's Adjuvant (CFA) into the left hind footpad of rats (animals). The animals were divided into three groups namely, Control, Ibuprofen and Formulation B. The role of Formulation B on specific cytokine blockade in the etiology of cachexia caused by Adjuvant Arthritis (AA) was evaluated. The parameter considered for the evaluation included paw thickness as a percent of paw thickness at Day 0 and percent body weight gain in animals. FIG. 4 illustrates paw thickness in animals as a percent of the paw thickness at Day 0 during the Adjuvant Induced Arthritis study in animals. Whereas, FIG. 5 illustrates percent body weight gain in animals during the Adjuvant Induced Arthritis study in animals.

DSS induced colitis = assay: Dextran Sodium Sulfate (DSS) induced colitis; type: in vivo; conditions: oral DSS in mice
Source text: Inflammation was induced in mice (animal) using oral administration of DSS.

Row | Structure (SMILES) | effect on cytokine inhibition ([1]; CFA into left hind footpad) | percent body weight gain (AA-associated weight loss) ([1]; compared to control animals, FIG. 5) | reduction in food intake (DSS induced colitis) | body weight loss (DSS induced colitis; FIG. 13)
1 | CC(C)Cc1ccc(C(C)C(=O)O)cc1 (stereo not shown) [Ibuprofen] | did not show any effect | lost body weight significantly | – | –
2 | O=C(O)c1cc(/N=N/c2ccc(S(=O)(=O)Nc3ccccn3)cc2)ccc1O [Sulfasalazine] | – | – | recovered | improved the body weight loss
